The values that follow are results of earlier work, collected in publication PMC4130638, “Structure of a Stapled Peptide Antagonist Bound to Nutlin-Resistant Mdm2” (PLoS ONE, 2014).

“Also recorded” adds a separate entry of the source.

In data set [1] the test system is Mdm2 Q24R (N-terminal domain). The note with it: Q24R mutation in N-terminal domain of Mdm2.
The subject of data set [2] is Mdm2 M62A (N-terminal domain). Conditions: M62A mutation in N-terminal domain of Mdm2.

Regarding Nutlin-3a, the “binding affinity for Mdm2 Q24R” value in data set [1] is given as “selectively reducing affinity for Nutlin but not p53”. In addition, the “binding affinity for Mdm2 M62A” value in data set [2] is given as “precludes binding of Nutlin, but not p53; also recorded: selectively reducing affinity for Nutlin but not p53; also recorded: significantly impairing binding”.
